# Laboratory results reported in patent US20140057323A1, “ENHANCED CELLODEXTRIN METABOLISM” (The Board of Trustees of the University of Illinois, priority 2011, published 2014).
# Legend:
# [1] = biological target: T1, Neurospora crassa cellodextrin transporter CDT-1 (NCU00801), wild type, SEQ ID NO: 9, GFP-tagged, in S. cerevisiae D452-2 (Neurospora crassa, UniProt Q7SCU1); experiment: Transporter kinetics, [3H]-cellobiose uptake into yeast; assay type: cell-based; conditions: CDT-1 WT
# T1 construct: [3H]-cellobiose uptake into whole cells
# T1 sequence (Q7SCU1 1-579): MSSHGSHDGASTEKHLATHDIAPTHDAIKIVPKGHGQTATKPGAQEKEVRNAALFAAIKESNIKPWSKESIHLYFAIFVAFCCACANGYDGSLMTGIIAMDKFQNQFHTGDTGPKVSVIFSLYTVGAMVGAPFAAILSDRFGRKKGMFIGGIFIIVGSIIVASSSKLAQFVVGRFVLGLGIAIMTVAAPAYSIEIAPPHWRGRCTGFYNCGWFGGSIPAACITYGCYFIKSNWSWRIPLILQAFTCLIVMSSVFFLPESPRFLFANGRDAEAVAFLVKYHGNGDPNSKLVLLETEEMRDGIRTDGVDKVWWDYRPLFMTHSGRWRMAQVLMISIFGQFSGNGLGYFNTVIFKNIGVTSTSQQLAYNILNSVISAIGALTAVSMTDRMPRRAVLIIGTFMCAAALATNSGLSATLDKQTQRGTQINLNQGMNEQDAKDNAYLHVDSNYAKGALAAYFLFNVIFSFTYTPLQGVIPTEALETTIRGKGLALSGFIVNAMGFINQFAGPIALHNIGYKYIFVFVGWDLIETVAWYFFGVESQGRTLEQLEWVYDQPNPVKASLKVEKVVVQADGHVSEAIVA
# Protocol: Briefly, the yeast strain D452-2 transformed with mutant transporters was set-up at an OD (600 nm) of −0.2 in 50 mL of DOB-uracil and grown to an OD (600 nm) of ˜1. Cells were then harvested by centrifugation, washed 3× with 10 mLs of transport buffer (30 mM MES-NaOH [pH 5.6], 50 mM EtOH), and resuspended to a final OD (600 nm) of ˜40 in transport buffer. The GFP fluorescence of 100 μL of these cells was determined with excitation/emission wavelengths of 485/535 nm Beckman Coulter Paradigm™ plate reader. […] Reactions were stopped by spinning cells through the oil for 1 minute at 17,000 g, tubes were frozen in ethanol/dry ice, and tube-bottoms containing the cell-pellets were clipped off into 1 mL of 0.5 M NaOH. The pellets were solubilized overnight, 5 mL of Ultima Gold scintillation fluid added, and CPM determined in a Tri-Carb 2900TR scintillation counter.
# [2] = biological target: S. cerevisiae hexokinase Hxk1 (NP_116711) (Saccharomyces cerevisiae, UniProt P04806); experiment: Effect of cellobiose on activity of purified hexokinase Hxk1; assay type: biochemical; conditions: Hxk1, up to 184 mM cellobiose
# S. cerevisiae hexokinase Hxk1 (NP_116711), sequence (P04806 whole entry): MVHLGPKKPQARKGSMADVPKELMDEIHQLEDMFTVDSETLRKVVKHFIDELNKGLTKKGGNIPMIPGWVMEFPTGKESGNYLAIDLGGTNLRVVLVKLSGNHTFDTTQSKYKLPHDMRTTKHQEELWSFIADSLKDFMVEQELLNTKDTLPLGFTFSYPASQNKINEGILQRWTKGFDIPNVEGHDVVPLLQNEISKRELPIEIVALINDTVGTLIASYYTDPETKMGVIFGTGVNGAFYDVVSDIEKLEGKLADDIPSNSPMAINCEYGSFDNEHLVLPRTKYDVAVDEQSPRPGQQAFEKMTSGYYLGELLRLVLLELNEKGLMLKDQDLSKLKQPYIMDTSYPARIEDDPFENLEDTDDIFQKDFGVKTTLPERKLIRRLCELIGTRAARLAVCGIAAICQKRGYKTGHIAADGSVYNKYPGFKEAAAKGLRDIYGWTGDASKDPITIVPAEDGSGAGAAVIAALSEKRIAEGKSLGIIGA
# Protocol: (§1) The amount of hexokinase activity in cell extracts was determined by coupling the production of glucose-6-phosphate to the reduction of NADP^+ by glucose-6-phosphate dehydrogenase. 10 μg of cell extract was added to 1 mL of an assay mixture consisting of 50 mM Tris-HCl [pH 8.0 at 30° C.], 13.3 mM MgCl2, 540 μM ATP, 20 μM NADP^+, 1 U S. cerevisiae glucose-6-phosphate dehydrogenase, and 112 mM glucose. The number of pmol of glucose-6-phosphate produced per second was calculated by multiplying the rate of increase at 340 nm by 1.85×10^3, a conversion that was established from a glucose-6-phosphate standard curve.
# (§2) The Hxk1 (Accession: NP_116711), Hxk2 (Accession: NP_011261), and Glk1 (Accession: NP_009890) genes were expressed and purified in E. coli. First, the genes were cloned into the PmlI and XhoI restriction sites of the expression plasmid pET302. Hxk1 gene was amplified using the following primers: […]
# (§3) These constructs were transformed into the BL21(DE3) strain of E. coli, and the proteins were expressed and purified using Nickel-NTA agarose beads from Qiagen following the protocol for native batch purification provided by Qiagen. […] Protein concentrations were determined by the absorbance at 280 nm using extinction coefficients of 45840 M^−1 cm^−1, 45840 M^−1 cm^−1 and 30370 M^−1 cm^−1, for Hxk1, Hxk2 and Glk1, respectively. […]
# [3] = biological target: S. cerevisiae hexokinase Hxk2 (NP_011261) (Saccharomyces cerevisiae, UniProt P04807); experiment: Effect of cellobiose on activity of purified hexokinase Hxk2; assay type: biochemical; conditions: read-out: reduction of hexokinase activity by cellobiose
# S. cerevisiae hexokinase Hxk2 (NP_011261), sequence (P04807 whole entry): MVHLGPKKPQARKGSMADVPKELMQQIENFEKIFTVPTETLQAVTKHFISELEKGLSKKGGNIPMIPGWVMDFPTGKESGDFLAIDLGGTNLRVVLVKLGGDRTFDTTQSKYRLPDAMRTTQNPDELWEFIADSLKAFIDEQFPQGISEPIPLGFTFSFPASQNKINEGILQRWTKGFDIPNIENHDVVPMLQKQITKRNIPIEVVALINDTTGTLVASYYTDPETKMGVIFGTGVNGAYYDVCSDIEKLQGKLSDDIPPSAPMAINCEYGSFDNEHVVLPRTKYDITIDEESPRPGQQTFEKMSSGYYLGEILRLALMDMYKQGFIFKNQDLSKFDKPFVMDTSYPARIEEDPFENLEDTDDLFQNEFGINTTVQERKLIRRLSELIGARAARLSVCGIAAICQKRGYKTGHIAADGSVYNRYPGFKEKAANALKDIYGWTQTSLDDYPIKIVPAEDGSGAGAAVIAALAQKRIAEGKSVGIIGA
# Protocol: as §1, §2, §3
# [4] = biological target: S. cerevisiae hexokinase Glk1 (NP_009890) (Saccharomyces cerevisiae, UniProt P17709); experiment: Effect of cellobiose on activity of purified hexokinase Glk1; assay type: biochemical; conditions: read-out: reduction of hexokinase activity by cellobiose
# S. cerevisiae hexokinase Glk1 (NP_009890), sequence (P17709 whole entry): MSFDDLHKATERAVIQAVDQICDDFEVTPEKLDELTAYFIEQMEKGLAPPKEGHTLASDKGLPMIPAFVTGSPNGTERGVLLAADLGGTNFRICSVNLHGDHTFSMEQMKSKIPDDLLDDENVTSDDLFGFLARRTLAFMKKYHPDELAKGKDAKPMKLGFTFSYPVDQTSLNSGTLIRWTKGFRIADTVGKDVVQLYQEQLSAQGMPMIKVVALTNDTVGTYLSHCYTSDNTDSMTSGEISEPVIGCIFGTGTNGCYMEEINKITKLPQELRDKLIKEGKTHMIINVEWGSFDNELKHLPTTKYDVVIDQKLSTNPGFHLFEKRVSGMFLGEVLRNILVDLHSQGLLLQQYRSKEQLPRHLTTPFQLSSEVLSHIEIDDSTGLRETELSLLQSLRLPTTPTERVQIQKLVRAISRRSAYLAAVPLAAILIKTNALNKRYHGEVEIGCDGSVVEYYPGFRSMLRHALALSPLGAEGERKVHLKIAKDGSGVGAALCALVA
# Protocol: as §1, §2, §3
compound,measurement,setting,value
OC[C@H]1O[C@@H](O[C@H]2[C@H](O)[C@@H](O)C(O)O[C@@H]2CO)[C@H](O)[C@@H](O)[C@@H]1O (stereo partly shown) [cellobiose],Vmax,[1],0.60 ± 0.03 µmol/s
same,effect of cellobiose on hexokinase activity,[2],unaffected
same,inhibition at 184000 µM,[3],~20%
same,inhibition at 184000 µM,[4],~20%
